Source: patent publication US7018654B2, “Pharmaceutical composition containing an active agent in an amino acid copolymer structure” (New River Pharmaceuticals Inc., priority 1999, dated 2006)

Key:
[1] = Stability of Gln measured by production of free ammonia in 0.2 M phosphate buffer; format: physicochemical
[2] = In vitro stability of glutamine by incubation in 0.2 M phosphate buffer at pH 9.0; format: physicochemical; conditions: pH 9.0, 37° C., same conditions
Experimental: The product of Example 2 was tested for stability and compared to monomeric glutamine by incubation in 0.2 M phosphate buffer at pH 9.0 as described by Price and Greenstein (J. Biol. Chem. vol. 180. p. 209, 1949), incorporated herein by reference.

[3] = test system: cultured human amniocytes; conditions: 0.8% solution in alpha-MEM without glutamine, with insulin and transferrin, pH 7.2

Row | Molecule | Stability of Gln, production of free ammonia (result in words) [1] | Stability of glutamine (result in words) [2] | Growth of cultured cells with no addition of monomeric L-glutamine [3]
1 | NC(=O)CC[C@H](N)C(=O)O [monomeric glutamine, glutamine] | almost completely de-amidated | extensive degradation to ammonia and pyrrolidonecarboxylic acid | –
2 | Glutamic Acid/Glutamine Co-Polymer [Example 19] | – | – | support growth of cultured human amniocytes, through multiple passages
